{
  "source": "patent US20070259857A1",
  "about": "“Amorphous form of Olanzapine” (priority 2003, published 2007)",
  "test": "Storage stability of ground amorphous olanzapine at room temperature, by XRPD analysis",
  "type": "physicochemical",
  "details": "ground sample of Example One stored at room temperature for 13 weeks",
  "method": "Figure Two is an XRPD spectrum of amorphous olanzapine. X-ray powder diffraction (XRPD) was performed on a Bruker D8 advance difractometer, at 25° C. between the angles of 4° and 50° 2 theta.\nThe sample of ground olanzapine was stored at room temperature for 13 weeks for stability testing using XRPD analysis.",
  "data": [
    {"smiles": "Cc1cc2c(s1)Nc1ccccc1N=C2N1CCN(C)CC1", "note": "[olanzapine, 2-methyl-4-(4-methyl-1-piperazinyl)-10H-thieno[2,3-b][1,5]benzodiazepine]", "values": [
      {"measurement": "Stability testing using XRPD analysis: difference in XRPD spectrum between the original and the stored sample", "value": "No difference was observed"}
    ]}
  ]
}
